From patent US20080301822A1, “Role of alpha1-adrenergic receptors” (The Cleveland Clinic Foundation, priority 2005, published 2008)

How the values were obtained:
[1] = system: α1A-AR mediated increased Ngn2 expression in normal neonatal neurospheres; experiment: Real time PCR of α1A-AR induced Ngn2 expression with signaling inhibitors; type: cell-based, mouse; details: one day phenylephrine treated normal neonatal neurospheres; FIG. 27
Method: (§1) Real Time PCR. Neurospheres were grown in proliferation or differentiation medium for 1, 3, 7 and 10 days respectively. The neurospheres grown in the proliferation medium were treated with phenlyephrine for the above-mentioned time along with Rauwalscine (0.1 uM) and Propranolol (1 uM). Total RNA was isolated using the RNAesy kit (Quiagen) and 2 ug RNA was reverse transcribed using oligodT primers with Superscript II Reverse Transcriptase (Invitrogen). Quantitative real time PCR was performed in iCycler (Biorad) using iQ SYBR Green Supermix. (Bio-Rad) The cDNA was amplified with primers for various neural stem cell proliferation and differentiation genes like Notch-1, Nestin, Mash-1, NeuroD, Math-1, Mash-1, Ngn-1, Ngn-2, D1x-2, Sox-2 and Zic-1. Samples obtained from three independent experiments were used for analysis of relative gene expression using the 2(-Delta Delta C(T) Method (Livak, K J and Schmittgen, T D, Methods 25:402-408 (2001)) and were normalized to α-Tubulin gene expression as internal control.
Since Ngn2 mRNA expression, a major gene of neuronal differentiation, appears to be regulated by the α1A-ARs, the common a i-AR signals responsible for this gene regulation was determined. Real time PCR and inhibitors for PKC (GO6983), PI3K (LY294002), MEK (PD98059) and p38 (SB202190) were used on one day phenylephrine treated normal neonatal neurospheres. The α1A-AR mediated increased Ngn2 expression was blocked by PKC, PI3K and MEK (ERK) inhibition but not by the p38 inhibitor (FIG. 27).

[2] = system: normal embryonic mouse neurospheres; experiment: Differentiation rates (number of live cells) in differentiation media (−EGF/FGF); type: cell-based; details: FIG. 16
Method: Differentiation rates (number of live cells) were also measured in normal neurospheres using differentiation media (−EGF/FGF) with and without phenylephrine.
(§2) Differentiation Assay: The neurospheres were differentiated by withdrawing the growth factors either in the differentiation supplement (stem cell technologies) for embryonic neurospheres or in B-27 medium with 2% serum (for neonatal neurospheres) after dissociating them with the chemical dissociation kit (Stem Cell Technologies). The cells were plated at the density of 2×10^5 cells in 12 well plates and treated with Phenylephrine (10 uM).

[3] = system: normal neonatal neurospheres; experiment: Real time PCR of neurogenic genes after phenylephrine stimulation; type: cell-based, mouse; details: FIG. 26
Method: as §1

[4] = system: normal mouse neurospheres; experiment: Neurosphere differentiation with phenylephrine in proliferation media (+EGF/FGF), immunostaining for MAP2, GFAP, NG2; type: cell-based; details: phenylephrine 10 uM, 3-10 days
Method: (§3) Neurosphere Isolation Periventricular tissue from 1-2 day old pups was removed into HEPES-buffered Eagles' medium. The tissue was diced and incubated with Mg/Ca-free HBSS containing EDTA, trypsin, and DNase. The tissue was washed, centrifuged, and the pellet was triturated in PBS to produce a single-cell suspension and was passed through a 70 um cell strainer. The cells were cultured in B27 media containing heparin, bFGF and EGF until neurosphere development. Neurospheres were dissociated and replated several passages. A single neurosphere was picked, mechanically dissociated, and cloned by dilution.
as §2, with “The neurospheres were differentiated by withdrawing the growth factors either in the differentiation” left out

CAM α1A-AR neurospheres = experiment: Neurosphere differentiation with phenylephrine, CAM α1A-AR neurospheres; type: cell-based, mouse; details: day 10, FIG. 22B
Method: as §2

[5] = system: α1A-KO neonatal neurospheres; experiment: Neurosphere differentiation with phenylephrine, α1A-KO neurospheres; type: cell-based, mouse; details: 10 days, FIG. 23B
Method: as §3, §2

α1-ARs = experiment: Saturation ligand binding on neurosphere membranes; parameters: species or system mouse; details: normal embryonic and neonatal neurospheres, FIG. 19A
Method: Ligand Binding. Membranes were prepared and ligand binding was performed as previously described (Rorabaugh et al., Cardiovas. Res., 65:436-445 (2005)). Saturation or competition binding used the nonselective i-AR antagonist, 2-[β-(4-hydroxyl-3-^125I-iodophenyl)ethylaminomethyl]-tetralone (^125I-HEAT) or ^125I-CYP as the radioligand, using either increasing concentration of the radiolabel or using a KD amount (100 pM) to label total α1-ARs and increasing concentrations of an non-labeled selective antagonist. Non-specific labeling was determined by adding 100 uM phentolamine (or α1-ARs) or 1 uM propranolol (for β-ARs). Bmax and KD were determined through the use of Graphpad Prism. Statistical analysis of the binding data used a one-way ANOVA followed by a Newman-Keul's post-test where p<0.05 was considered significant.

[6] = system: α1A-AR-EGFP positive hippocampal CA1 interneurons; experiment: Cell-attached patch recordings of spontaneous action potentials in hippocampal slices; type: cell-based, mouse; details: 6FNE 10 μM
Method: Slice Preparation and Cell Identification. Hippocampal brain slices were prepared from α1A-AR-EGFP mice in strict accordance with a protocol approved by the Institutional Animal Care and Use Committee at the University of North Dakota. Mice were deeply anesthetized with isoflurane, sacrificed by decapitation, and their brains rapidly removed and placed in an ice-cold saline solution containing (in mM): 130 NaCl, 24 NaHCO3, 5 KCl, 1.25 NaH2PO4, 0.5 CaCl2, 4 MgCl2 and 10 glucose (saturated with 95% O2-5% CO2). The brain was then sectioned at 250-350 μm thick intervals using a Microm HM 650V vibrating blade microtome (Richard-Allen Scientific, Kalamazoo, Mich.). Slices were incubated at 35° C. for 40 min and then allowed to recover for at least 30 min at room temperature (22±1° C.) before experimentation. Slices were transferred to a PC-H chamber with a coverslip bottom (SD Instruments, Grants Pass, Oreg.) mounted on the fixed stage of an upright microscope (Olympus BX51 WI, Tokyo, Japan) equipped with a filter set for fluorescence imaging of EGFP and IR-DIC optics. Interneurons were visualized using 470 nm and 900 nm light with a water immersion objective (Olympus LUMPlanF1 60×IR) and two CCD cameras (Olympus MagnaFire and Sony XC-75, Tokyo, Japan). Dedicated MagnaFire software and a Hamamatsu C-2400 camera controller (Hamamatsu City, Japan) were used to adjust image quality in GFP and IR-DIC channels, respectively. […]
Electrophysiological Recordings. […] Action potentials (APs) were recorded using an Axopatch 200B amplifier (Axon Instruments, Union City, Calif.) in voltage-clamp mode, filtered at 2 kHz, digitized at 10 kHz (Digidata 1322A; Axon Instruments), and recorded to disk using pClamp9.0 software (Axon Instruments). […] Data were analyzed offline using Origin (OriginLab Corp., Northampton, Mass.) and Mini analysis 6.0.1 (Synaptosoft Inc., Decatur, Ga.). Each detected event was inspected visually to exclude obvious false action potentials (AP) before analysis. […] Statistical significance (p<0.05) was determined using the paired Student's t test, and mean values are expressed ±SEM.

pyramidal cells = experiment: Action potential generation in pyramidal cells (unpublished data); type: cell-based

COc1cccc(-c2cc(=O)c3ccccc3o2)c1N [PD98059]
block of α1A-AR mediated increased Ngn2 expression [1]: blocked

COc1ccc2c(c1)c(C1=C(c3c[nH]c4ccccc34)C(=O)NC1=O)cn2CCCN(C)C [GO6983]
block of α1A-AR mediated increased Ngn2 expression [1]: blocked

COc1cc2nc(N3CCN(C(=O)c4ccco4)CC3)nc(N)c2cc1OC [prazosin]
block of the phenylephrine enhancement of neurosphere differentiation ([2]; differentiation media (−EGF/FGF) + phenylephrine): can be blocked

CNC[C@H](O)c1cccc(O)c1 [Phenylephrine]
increase of α1A-AR mRNA expression [3]: two hundred-fold | increase of α1B-AR mRNA expression [3]: 10 fold | mRNA expression of genes involved in neurogenesis and neuronal differentiation ([3]; normal neonatal neurospheres): induced increased mRNA expression | differentiation of normal neurospheres in proliferation medium (+EGF/FGF) [4]: caused the differentiation of the neurospheres | differentiation of normal neurospheres in proliferation medium (+EGF/FGF) ([4]; listed as Phe): induced differentiation into all three cell types | effect on CAM α1A-AR neurospheres (differentiation) (CAM α1A-AR neurospheres): very little effect | effect on α1A-KO neurospheres (differentiation) [5]: increased formation of neurons | differentiation of neurospheres (number of live cells) ([2]; differentiation media (−EGF/FGF)): enhances differentiation of neurospheres

Oc1ccc(-c2nc(-c3ccncc3)c(-c3ccc(F)cc3)[nH]2)cc1 [SB202190]
block of α1A-AR mediated increased Ngn2 expression [1]: not

O=C1c2ccccc2CCC1CNCCc1ccc(O)c([125I])c1 (stereo not drawn) [125I-HEAT, 2-[β-(4-hydroxyl-3-^125I-iodophenyl)ethylaminomethyl]-tetralone]
Kd (α1-ARs): 0.176 nM

Cl.NCC(O)c1cc(O)c(O)cc1F (centres unmarked) [6FNE, 6-fluoronorepinephrine (6FNE) hydrochloride]
effect on AP frequency over control conditions ([6]; FIG. 6D, fully reversible with wash): large increase in AP frequency | frequency of spontaneous action potential discharge, range ([6]; n=4, control range 0-0.7 Hz): 1.8-6.5 Hz | frequency of spontaneous action potential discharge, mean ([6]; n=4, mean ±SEM, control 0.3±0.1 Hz, 22±1° C.): 3.5±1.1 Hz | action potential generation in pyramidal cells (pyramidal cells): inhibits action potential generation
